Results reported in patent publication US11034725B2, “Compositions and methods for treating cardiovascular disease” (Genentech, Inc., priority 2016, dated 2021).
Like-named read-outs stand apart in the source and are kept apart here. Bridge positions count the residues as written; N and C are the ends. Square brackets hold non-standard residues; d marks the D form. Peptide text beside a SMILES is read from it. hArg = N=C(N)NCCCC[C@H](N)C(=O)O

Tests used:
PCSK9Δhelix [1] = biological target: T1, PCSK9Δhelix (Homo sapiens, UniProt Q8NBP7); experiment: PCSK9Δhelix/Ab20 TR-FRET binding assay
T1 construct: Human PCSK9 construct M1-Q692 with an engineered TEV site (residue deletion Y166, R167); made in house; host or cells: CHO

PCSK9 [2] = biological target: T2, PCSK9 (Homo sapiens, UniProt Q8NBP7); experiment: PCSK9/LDLR-Fc TR-FRET assay (LDLR assay); format: binding; conditions: Table 11, LDLR-Fc, average ±S.D. of three experiments
Experimental: In black 1536-well assay plates (MaKO, Aurora® Microplates, Whitefish, Mont.), 40 nL of peptide in DMSO were preincubated with 2 μL His-tagged PCSK9 plus anti-His-allophycocyanin in assay buffer (50 mM Tris-HCl, pH 7.5, 150 mM NaCl, 2 mM CaCl2, 0.01% Tween®-20, 0.1% bovine gamma globulins, and protease inhibitor cocktail) for 30 min. Then 2 μL of Fc-tagged ligand and anti-Fc-europium in assay buffer were added and allowed to incubate for 2 h. The PCSK9 and ligand conditions for each assay are as follows: 10 nM C-terminal (His)8-tagged PCSK9 (“(His)8” disclosed as SEQ ID NO: 304) and 12 nM EGF(A)-Fc for the EGF(A) assay, 10 nM C-terminal (His)8-tagged PCSK9 (“(His)8” disclosed as SEQ ID NO: 304) and 2.5 nM LDLR-Fc for the LDLR assay, 1.25 nM C-terminal (His)8-tagged PCSK9Δhelix (“(His)8” disclosed as SEQ ID NO: 304) and 0.75 nM Ab20 for the Ab20 assay, and 2 nM His-EGF(A)-Fc alone for the counterscreen. In all assays, anti-His-allophycocyanin and anti-Fc-europium were used at 20 nM and 2 nM, respectively. Fluorescence was measured with excitation at 340 nm and emission at 671 nm and 618 nm. The TR-FRET ratio was calculated as fluorescence at 671 nm/fluorescence at 618 nm. The ratios were normalized to controls and plotted against peptide concentration to determine IC50 values (Screener Analyzer, Genedata, Basel, CH). The peptides were evaluated in three separate experiments per assay with 10-point titrations and n=2 per concentration. The values presented are the average ±S.D. of three independent experiments.

PCSK9Δhelix [3] = biological target: T1, PCSK9Δhelix; experiment: SPR affinity measurements of peptide binding (Example 8)
Experimental: A Biacore™ T100 or Biacore™ 8K was adjusted to 20° C. The system was primed into assay buffer which consisted of 25 mM HEPES, pH 7.5, 0.15 M NaCl, 0.005% (v/v) Tween® 20, 0.2 mM tris(2-carboxyethyl)phosphine and optionally contained 0.1% (w/v) carboxymethylated dextran (average MW 10 kDa) and 0.2% (w/v) PEG (average MW 3450 Da) in order to reduce potential non-specific binding. Peptides were assayed by capturing fresh PCSK9 or PCSK9Δhelix after each binding regeneration cycle by exploiting a histidine tag and an NTA-sensor chip. The surface was charged with (His)8-tagged PCSK9 (approximately 800 RU captured). […] Compound 19 and Compound 20 were assayed in six serial two-fold dilutions from 100 nM to 3.1 nM. All peptides were analyzed in duplicate by serial injection (50 μL/min for 1 min) of peptide dilution from low to high concentration. The surface was then stripped of target by injecting 0.5 M EDTA, pH 8.0. This sequence was repeated for each peptide binding cycle and blank control cycles.
All SPR data was recorded in duplicate for five, or more serial dilutions, except for the two fusion peptides, which produced extremely low fitting error. Multicycle data (i.e. separate curves for each concentration) and single cycle data (i.e. single curve with serial injection of each concentration) were double referenced and fitted to an interaction model using BIAevaluation software. Peptide binding to PCSK9 produced deviations from a simple 1:1 binding interaction model that required application of a two-state model for determination of Kd while interactions with PCSK9Δhelix conformed well to simple 1:1 binding. Kinetic curvature was poorly defined for rapidly dissociating peptides and in these cases Kd was estimated from a steady-state dose response plot. Kd values were reported with associated standard error, a measure of confidence in that parameter value.

PCSK9 [4] = biological target: T2, PCSK9; experiment: PCSK9/EGF(A) TR-FRET binding assay
His-EGF(A)-Fc = His-EGF(A)-Fc TR-FRET counterscreen
PCSK9 [5] = biological target: T2, PCSK9; experiment: Phage competition ELISA; format: binding
Experimental: The sequences of selected clones were fused to the N-terminus of M13 major coat protein (p8) using Kunkel mutagenesis method (Kunkel et al., Methods Enzymol 154, 367-82). The resulting construct was transformed to E. Coli. XL1 blue, single colony was grown in 1 mL 2YT supplemented with 50 μg/mL carbenicillin, 10 μg/mL Tetracycline and M13 KO7 helper phage at 37° C. for 2 h, Kanamycin was added to final concentration of 25 μg/mL, growth was continued at 37° C. for 6 h. The culture was transferred to 30 mL 2YT supplemented with 50 μg/mL carbenicillin and 25 μg/mL kanamycin and grown at 37° C. overnight. The next day, the phage was harvested and purified using the standard protocol (Tonikian et al. Nat Protoc. 2007; 2(6):1368-86). The serially diluted phage solution was applied to the biotinylated PCSK9 and biotinylated PCSK9Δhelix that had been immobilized for 15 min on a 384-well MaxiSorp ImmunoPlate previously coated with 5 μg/mL NeutrAvidin and blocked with Block buffer. The plate was incubated at 4° C. for 1 h, washed 10 times with PT buffer (PBS, 0.05% Tween® 20). The bound phage was detected with anti-M13-HRP and the ELISA signal was read at OD450 nm. The background was ELISA signal that the phage directly bound to NeutrAvidin-coated plate. The data was plotted and the curve fitted with KaleidaGraph. Sub-saturating phage concentration that gave 80% of maximum binding signal was determined by the binding curve.
IC50 measurements were performed by mixing a fixed sub-saturating concentration of peptide-displaying phage with a serial dilution of synthetic peptides in PBT buffer. The mixture was added to plates coated with PCSK9 and PCSK9Δhelix and incubated for 1 h at room temperature. The plates were then washed 10 times with PBT buffer and the bound phage was detected by anti-M13-HRP. The data was plotted, curve fitted and IC50 derived by use of KaleidaGraph. All measurements were repeated 3 times independently.

[6] = biological target: T3, PCSK9-R167A:R215A:R218A (PCSK9-AAA) (Homo sapiens, UniProt Q8NBP7, R167A/R215A/R218A); experiment: FXIa cleavage assay of the P′ helix of PCSK9-AAA; format: biochemical; conditions: immunoblot with anti-N-terminal peptide antibody
T3 construct: made in house; host or cells: CHO (transient)
Experimental: The PCSK9-AAA mutant (2.6 μM) was incubated with 50 nM FXIa (Haematologic Technologies) in Tris buffer (50 mM Tris, 150 mM NaCl, 4 mM CaCl2, pH 8.0) at room temperature for the indicated time periods. […] After SDS-PAGE of the samples, proteins were transferred to a nitrocellulose membrane using iBlot (Invitrogen). Proteins were then probed with a polyclonal rabbit antibody (1:3000) raised against the PCSK9 N-terminal peptide (^153[…]^168 (SEQ ID NO: 5)), followed with HRP-conjugated donkey anti-rabbit antibody (1:5000, GE Healthcare) using iBind (Invitrogen). PCSK9 signals were detected by ECL (GE Healthcare) and visualized by autoradiography.
Proteins were then probed with a polyclonal rabbit antibody (1:3000) raised against the PCSK9 N-terminal peptide (^153[…]^168 (SEQ ID NO: 5)), followed with HRP-conjugated donkey anti-rabbit antibody (1:5000, GE Healthcare) using iBind (Invitrogen). PCSK9 signals were detected by ECL (GE Healthcare) and visualized by autoradiography.

PCSK9 [7] = biological target: T2, PCSK9; experiment: Cell surface LDLR assay with HepG2 cells; format: cell-based; conditions: HepG2 cells, 15 μg/mL PCSK9, 4 h, FACS
Experimental: HepG2 cells (ATCC; Manassas, Va.) were seeded into 48 well plates (Corning; Corning, N.Y.) at 1×10^5 cells per well in high glucose medium (DMEM, Gibco; Carlsbad, Calif.) containing 2 mM glutamine (Sigma), penicillin/streptomycin (Gibco) and 10% FBS (Sigma; St. Louis, Mo.) and incubated overnight. Then the medium was changed to DMEM containing 10% lipoprotein deficient serum (LPDS, Sigma). After 24 h, 15 μg/mL PCSK9 was incubated with peptides or Fab33 for 30 min, added to the cells and incubated at 37° C. for 4 h. Cells were rinsed with PBS and detached using Cell Dissociation Buffer in PBS (Gibco). After centrifugation, the resuspended cells were incubated with 1:20 anti LDLR antibody (Progen Biotechnik; Heidelberg, Germany) on ice for 10 min. The samples were then washed with PBS and incubated with 1:200 diluted goat anti mouse IgG (H+L) Alexa Fluor 488 (Invitrogen; Carlsbad, Calif.) on ice for 5 min. After two PBS washes, cells were re suspended in PBS containing 2.5 μg/mL of propidium iodide and analyzed on a dual laser flow cytometer (FACScan, Becton Dickinson; Franklin Lakes, N.J.). Relative fluorescence units (RFUs) were used to quantify LDLR expression levels on the HepG2 cell surface. Cell surface LDLR levels were expressed as percent of LDLR levels measured in the absence of PCSK9 (=control).
The effect of Compound 229 on PCSK9-mediated LDL receptor degradation was measured in a HepG2 cell assay as previously described (Zhang et al., J Biol Chem. 2014 Jan. 10; 289(2):942-55). Peptides at various concentrations were preincubated with 15 μg/mL PCSK9 in the presence of 0.5% DMSO for 30 min prior to the addition to cells. After a 4 h incubation, the cells were processed for measurements of LDL receptor surface levels by flow cytometry as described (Zhang et al., J Biol Chem. 2014 Jan. 10; 289(2):942-55) (FIG. 37).

[8] = TR-FRET, Table 8E, additional compounds, read-out: PCSK9Δhelix/Ab20 IC50
[9] = Table 11, average ±S.D. of three experiments, read-out: Ab20 IC50
[10] = TR-FRET, Table 8E, additional compounds, read-out: PCSK9/EGF(A) IC50
[11] = Table 11, average ±S.D. of three experiments, read-out: EGF(A) IC50
[12] = TR-FRET counterscreen, Table 8E, additional compounds

| SMILES | IC50 (PCSK9Δhelix [1]; [8]) [µM] | IC50 (PCSK9Δhelix [1]; [9]) [µM] | IC50 (PCSK9 [2]) [µM] | IC50 (PCSK9 [4]; [10]) [µM] | IC50 (PCSK9 [4]; [11]) [µM] | IC50 (His-EGF(A)-Fc; [12]) [µM] | competition with binding of phage-displayed Pep2-8 to PCSK9 (PCSK9 [5]) | also measured |
| --- | --- | --- | --- | --- | --- | --- | --- | --- |
| CC[C@H](C)[C@H](NC(=O)[C@H](CCCCNC(=N)N)NC(=O)[C@@H](NC(=O)[C@H](CC(C)C)NC(=O)[C@H](CC(N)=O)NC(=O)[C@H](Cc1c[nH]c2ccccc12)NC(C)=O)C(C)C)C(=O)NCC(=O)N[C@@H](CC(C)C)C(=O)N[C@@H](CC(C)C)C(=O)N[C@@H](CCCNC(=N)N)C(N)=O [Compound 192, Ac-WNLV(homoR)IGLLR-NH2] (Ac-WNLV[hArg]IGLLR-NH2) | 5.3 | 5.55 ± 0.36 | > 50 | ≥ 50 | > 50 | ≥ 50 | – | Kd (PCSK9Δhelix [3]; Table 10, binding to PCSK9Δhelix): 1 µM; improvement of binding affinity by homo-arginine substitution (PCSK9Δhelix [3]; Table 10, versus Compound 53): 14 fold |
| CC[C@H](C)[C@H](NC(=O)[C@H](CCCCNC(=N)N)NC(=O)[C@@H](NC(=O)[C@H](CC(C)C)NC(=O)[C@H](CC(N)=O)NC(=O)[C@H](Cc1c[nH]c2ccccc12)NC(=O)CNC(=O)[C@@H]1CCCN1C(=O)[C@H](Cc1ccc(O)cc1)NC(=O)[C@H](CO)NC(=O)[C@H](CCC(=O)O)NC(C)=O)C(C)C)C(=O)NCC(=O)N[C@@H](CC(C)C)C(=O)N[C@@H](CC(C)C)C(=O)N[C@@H](CCCNC(=N)N)C(N)=O [Compound 231] (Ac-ESYPGWNLV[hArg]IGLLR-NH2) | 17 | 1.49 ± 0.1 | > 50 | 1.6 | 15.8 ± 0.1 | ≥ 50 | – | – |
| CC[C@H](C)[C@@H]1NC(=O)[C@H](CCCNC(=N)N)NC(=O)[C@H](CCC(N)=O)NC(=O)[C@H](CC(C)C)NC(=O)[C@H](CC(N)=O)NC(=O)[C@H](Cc2c[nH]c3ccccc23)NC(=O)[C@@H]2CCCN2C(=O)[C@H]([C@@H](C)CC)NC(=O)[C@H](Cc2ccccc2)NC(=O)[C@@H](NC(=O)CNC(=O)[C@@H](N)CO)CSSC[C@@H](C(N)=O)NC(=O)[C@H](CC(C)C)NC(=O)[C@H](CC(C)C)NC(=O)CNC1=O [Compound K9gvpep1] (H-SGCFIPWNLQRIGLLC-NH2; disulfide 3-16) | – | – | – | – | – | – | did not compete | – |
| CC[C@H](C)[C@@H]1NC(=O)[C@H](CCCNC(=N)N)NC(=O)[C@H](CCC(N)=O)NC(=O)[C@H](CC(C)C)NC(=O)[C@H](CC(N)=O)NC(=O)[C@H](Cc2c[nH]c3ccccc23)NC(=O)[C@@H]2CCCN2C(=O)[C@H](CC(C)C)NC(=O)[C@H](CCCNC(=N)N)NC(=O)[C@@H](NC(=O)CNC(=O)[C@@H](N)CO)CSSC[C@@H](C(N)=O)NC(=O)[C@@H]2CCCN2C(=O)[C@H](CC(C)C)NC(=O)CNC1=O [Compound K9gvpep4] (H-SGCRLPWNLQRIGLPC-NH2; disulfide 3-16) | – | – | – | – | – | – | did not compete | – |
| CC(=O)N[C@H](C(=O)N[C@H](C(=O)N[C@@H](Cc1ccccc1)C(=O)N[C@H](C(=O)N[C@@H](CO)C(=O)N[C@@H](Cc1c[nH]c2ccccc12)C(=O)N[C@@H](CCC(=O)O)C(=O)N[C@@H](CCC(=O)O)C(=O)N[C@@H](Cc1ccc(O)cc1)C(=O)N[C@@H](CC(C)C)C(=O)N[C@@H](CC(=O)O)C(=O)N[C@@H](Cc1c[nH]c2ccccc12)C(=O)N[C@H](C(N)=O)C(C)C)[C@@H](C)O)C(C)C)[C@@H](C)O [Pep2-8, reference compound] | – | – | – | – | – | – | inhibited phage-displayed Pep2-8 binding | effect on FXIa-mediated cleavage of the P′ helix of PCSK9-AAA [6]: largely prevented cleavage; EC50 (PCSK9 [7]): 5 to 10 µM; IC50 (His-EGF(A)-Fc; counterscreen, Example 7): > 50 µM |
